{"source": "patent US20220194952A1", "about": "“TETRAPYRROLIC CONJUGATES AND USES THEREOF FOR IMAGING” (Health Research, Inc., priority 2019, published 2022)", "key": {"[1]": {"tested_on": "Colon26 tumors", "experiment": "In vivo PDT efficacy", "design": "species or system BALB/c mice", "settings": "dose 1 μmol/kg; light 135 J/cm^2, 75 mW/cm^2 at 24 h postinjection; 5 mice/group", "method": "Tumors were exposed to light (135 J/cm^2, 75 mW/cm^2) at 24 h (hour) postinjection (optimal time for tumor uptake for both the PSs).\nFor determining the in vivo imaging and therapeutic potential of 2, BALB/c mice (5-10 mice/group) bearing Colon26 tumors were used. In brief, 1×10^6 Colon26 cells were injected in mice subcutaneously. The tumors were left to grow for 1 week until they achieve the desired size (3-5 mm) for treatment. The photosensitizer was injected intravenously following the animal protocol approved by RPCI IACUC committee. Irradiance occurred 24 hours after i. v. injection; light dose was 135 J/cm^2 at a dose rate of 75 mW/cm^2 using the near-IR wavelengths of interest: 665 nm or 789 nm.\nTwo axes of the tumor (L, longest axis; W, shortest axis) were measured in millimeters with the aid of a Vernier caliper. Tumor weight (mg) was estimated as a formula: tumor weight=1/2 (L×W2). Tumor measurements were taken daily for the first 10 days and at least three tine a week for the first 4 weeks of post therapy and twice a week thereafter. Endpoints were 400 mm^3 tumor volume or 60 days."}, "[2]": {"experiment": "Singlet oxygen phosphorescence at 1270 nm, methanol, pulsed laser 532 nm", "assay_type": "physicochemical", "settings": "near 5 μM, equi-absorbant at 532 nm, excited at 532 nm", "method": "The photosensitizers, e. g., HPPH (control), 2 and 4 were individually dissolved in methanol (concentration: 5 μM) in polystyrene cuvettes and excited at 532 nm using a pulsed laser. Phosphorescence of singlet oxygen was detected at 1270 nm.\nBefore evaluating the imaging and photosensitizing potential of the chlorin 4 with extended ring system, its singlet oxygen producing ability was compared with the related chlorin 2. In brief, both compounds were individually dissolved in methanol in equi-absorbant (at 532 nm) concentrations near 5 μM and excited at 532 nm using a pulsed laser. The phosphorescence of singlet oxygen was detected at 1270 nm. From the results summarized in FIG. 4, it can be seen that compared to chlorin 2 with a five-member isocyclic ring, the related analog 4 with an extended ring system had remarkably lower singlet oxygen producing ability. Singlet oxygen quantum yields were φ=0.29 and φ=0.02 respectively, compared to HPPH φ=0.45."}, "[3]": {"tested_on": "Colon26 tumors", "experiment": "In vivo whole body tumor fluorescence imaging (IVIS Spectrum)", "design": "species or system BALB/c mice", "settings": "non-radioactive analogs, i.v., post-injection", "method": "Before evaluating in vivo PDT efficacy of PS 4 by exposing the tumors with light, the time point for optimal tumor uptake of PS was determined by whole body fluorescence imaging of tumored mice at various time points after injecting the PS.\nThe multi-spectral imaging system, IVIS Spectrum (Perkin-Elmer) along with Living Image (image acquisition and analysis software) was used. IVIS Spectrum has the capability to use either trans-illumination (from the bottom) or epi-illumination (from the top) to illuminate in vivo fluorescent sources. […] Regions of interest (ROI) were defined for areas of compound accumulation (tumor, liver, skin) and total and average signal within the region were recorded. Fluorescent intensity is expressed as the total radiant efficiency ([p/s]/[μW/cm^2]. Results are expressed as mean total radiant efficiency of three mice±SD."}, "[4]": {"experiment": "Absorbance (UV-VIS) in methanol", "assay_type": "physicochemical", "settings": "ε665 for 2 (peak 660 nm), ε785 for 4 (peak 785 nm)", "method": "Absorbance of 2 and 4 was measured using different concentrations in methanol on UV-VIS and indicates far-red peaks at 660 nm and 785 nm, with extinction coefficients ε665=47,500 L·mol^−1 cm^−1 and ε785=18,100 L·mol^−1 cm^−1 respectively.\nChemistry Methods: All reactions were carried out in heat gun-dried glassware under an atmosphere of nitrogen and magnetic stirring. Thin layer chromatography (TLC) was done on pre-coated silica gel sheets (layer thickness 0.2 mm). Column chromatography was performed either using silica gel 60 (70-230 mesh) or neutral alumina grade III. In some cases preparative TLC was used for the purification of compounds. Purity of the compounds was ascertained by TLC and HPLC analysis. All compounds including the intermediates were >95% pure. UV-visible spectra were recorded on FT UV-visible spectrophotometer using methanol as a solvent. Mass spectrometry analyses were performed at the Mass Spectrometry Facility, University at Buffalo, N.Y. Compounds 1 and 2 were synthesized by following the methodologies previously described."}, "[5]": {"experiment": "Photobleaching in 17% bovine calf serum", "assay_type": "physicochemical", "settings": "660 nm", "method": "Photobleaching was performed in quartz cuvettes on a 5 μM solution of 2 and a 25 μM solution of 4 in 17% BCS. The higher molarity was chosen to approximate the absorbance of 2 at 5 μM. A dye laser was used at dose rate 75 mW/cm^2, and excitation wavelength for 2 was 660 nm and for 4 was 785 nm.\nIn photodynamic therapy, photobleaching is the photochemical alteration of a chromophore or a fluorophore molecule such that could either permanently is unable to fluoresce or alter its fluorescence characteristics. This is caused by cleaving of the covalent bonds or non-specific reaction between the reactive oxygen species (e.g., singlet oxygen) and the molecule. These […] species formed by conversion of the molecular oxygen present in tumor to singlet oxygen by exposing the photosensitizer with light at an appropriate wavelength. The rate of photobleaching of the PS should depend (a) availability of oxygen, (b) photostability of PS and finally (c) the singlet oxygen (or other reactive oxygen species) producing ability of the PS.\nTo investigate the photobleaching characteristics of the photosensitizers, compounds 2 and 4 in equimolar concentrations (5 μM) were taken in quartz cuvettes in 17% bovine calf serum. Dye lasers with appropriate wavelength (2: 660 nm and 4: 785 nm) were used at a dose rate of 75 mW/cm^2. Both the compounds in formulated forms were irradiated with light and the absorption spectra at their long wavelength absorptions were measured with time. The decay in absorbance was plotted against the time of light exposure."}, "[6]": {"tested_on": "Colon26 cells", "experiment": "In vitro cytotoxicity (PDT) MTT assay", "assay_type": "cell-based", "method": "Drug concentrations were increased 10× (0.25 to 32.0 μM) and a significant cytotoxicity was observed only at high concentrations at the highest light dose.\nAssessment of cell growth following treatment with compound solutions alone and after light exposure was determined by a colorimetric assay that measured the reduction of yellow 3-(4,5-dimethythiazol-2-yl)-2,5-diphenyl tetrazolium bromide (MTT) by mitochondrial succinate dehydrogenase.\nBriefly cells were plated into 96 well plates, allowed to adhere to the plate and are treated with a range of compound concentrations for various lengths of time. The light source consisted of dye lasers (375; Spectra-Physics, Mt. View, Calif.) pumped by an argon-ion laser (either 171 or 2080; Spectra-Physics). The dye lasers were tuned to the appropriate wavelength for the compound being tested. Total light doses were ranged from 0.125 to 1.0 J/cm^2 at a fluence rate of 3.2 mW/cm^2. At 48 hours post PDT treatment, MTT was added. The solubilized formazan product was measured spectro-photometrically using a BIOTEK EL-800 plate reader. Data were processed using GEN5 software. A medium blank value was subtracted from all samples and Optical Density (O.D.) values of treated cells were divided by mean O.D. value of untreated cells for each light dose).\nColon26 cells were plated and allowed to adhere for 4 hours, then the photosensitizer was added and incubated at 37° C. for 24 hours. Plates were irradiated with 789 nm light from a dye laser at 3.2 mW/cm^2 for a total dose of 0.25 to 1.0 Joule/cm^2."}, "[7]": {"tested_on": "Colon26 tumors", "experiment": "PET imaging of 124I-analogs", "settings": "ethanol/PBS formulation, 25 μCi/mouse", "quoted_text": "Compounds were resuspended in 10% ethanol saline, and ˜50 μCi were injected per mouse.\nFinal product was formulated in 10% ethanol in saline for injection in mice for PET imaging and biodistribution studies. Formulations noted as Pluronic® were formulated in 2% Pluronic® F-127 in saline. Mice were injected with 50 μCi (˜100 μL) for biodistribution, or 100 μCi (˜200 μL) for PET imaging."}, "[8]": {"tested_on": "Colon26 tumors", "experiment": "In vivo biodistribution of 124I-analogs", "design": "species or system BALB/c mice", "settings": "for organ distribution (in words): ethanol/PBS formulation, i.v., 24, 48, 72 hours", "method": "From left to right, each group is 24 hours 2, 48 hours 2, 72 hours 2, 24 hours 6, 48 hours 6, and 72 hours 6.\nThe labeled product, 6, was collected and dried."}}, "data": [{"compound": "CCC1=C(C)c2cc3[nH]c(cc4nc(c5c6[nH]c(cc1n2)c(C)c6C(=O)C5)[C@@H](CCC(=O)OC)[C@@H]4C)c(C)c3C(C)OCc1cccc([124I])c1", "note": "(stereo partly shown) [Compound 2, methyl 3-[1′-(m-iodobenzyloxy)ethyl]-3-devinyl pyropheophorbide]", "values": [{"measurement": "tumor cure after PDT", "setting": "[1]", "result": 80, "unit": "%"}, {"measurement": "Singlet oxygen quantum yield φ", "setting": "[2]", "result": 0.29}, {"measurement": "time of optimal uptake in tumor (fluorescence imaging)", "setting": "[3]", "result": 24, "unit": "h"}, {"measurement": "extinction coefficient at far-red absorbance peak", "setting": "[4]", "result": "47,500 L·mol^−1 cm^−1"}, {"measurement": "photobleaching experimental endpoint reached", "setting": "[5]; 5 μM in 17% BCS, 75 mW/cm^2", "result": 20, "unit": "%"}, {"measurement": "fraction photobleached", "setting": "[5]; 17% bovine calf serum, 5 μM, 75 mW/cm^2, by three hours", "result": 80, "unit": "%"}, {"measurement": "in vitro cytotoxicity at 10× increased drug concentrations (in words)", "setting": "[6]; 0.25 to 32.0 μM, significant cytotoxicity only at high concentrations at the highest light dose (FIG. 8B)", "result": "toxic effects only at high concentrations"}, {"measurement": "in vitro cytotoxicity (in words)", "setting": "[6]; variable drug concentrations, fixed light dose 1.0 J/cm^2 (FIG. 8A)", "result": "light dose-dependent cytotoxicity"}]}, {"compound": "CCC1=C(C)c2cc3[nH]c(cc4nc(c5c6[nH]c(cc1n2)c(C)c6C(=O)C5)[C@@H](CCC(=O)OC)[C@@H]4C)c(C)c3C(C)OCc1cccc(I)c1", "note": "(stereo partly shown) [Compound 2a, 3-(1′-m-iodobenzyloxy) ethyl-3-devinyl-pyropheo phorbide-a methyl ester, reference compound]", "values": [{"measurement": "time of maximum tumor uptake (PET)", "setting": "[7]", "result": 24, "unit": "h"}, {"measurement": "organ distribution (in words)", "setting": "[8]", "result": "significantly high uptake in spleen"}]}, {"compound": "CCC1=C(C)c2cc3[nH]c(cc4nc(c5c6[nH]c(cc1n2)c(C)c6C=C(OC)C5=O)[C@@H](CCCC(=O)OC)[C@@H]4C)c(C)c3[C@H](C)OCc1cccc([124I])c1", "note": "[Compound 6, Methyl 3-[1′-(m-^124iodobenzyloxy)ethyl]-3-devinyl-13^3-keto-13^2methoxycyclohexene (verdin)]", "values": [{"measurement": "tumor uptake", "setting": "[8]; BALB/c mice implanted with Colon26 tumors, i.v.", "result": "> 9 % of the injected dose"}, {"measurement": "organ distribution (in words)", "setting": "[8]", "result": "significantly higher uptake in tumor than other organs"}]}, {"compound": "HPPH", "values": [{"measurement": "Singlet oxygen quantum yield φ", "setting": "[2]", "result": 0.45}]}]}
